We go through three molecules from patent US20240368165A1, “SOLID STATE FORMS OF HYDROCHLORIDE SALT OF ((1S,2S,4R)-4-{4-[(1S)-2,3-DIHYDRO-1H-INDEN-1-YLAMINO]-7H-PYRROLO[2,3-D]PYRIMIDIN-7-YL}-2-HYDROXYCYCLOPENTYL)METHYL SULFAMATE” (Takeda Pharmaceutical Company Limited, priority 2020, published 2024).

What is called solubility is the concentration that dissolves in the medium under given conditions. Read a low solubility as a poorly soluble substance.

Molecules are shown by their SMILES.

Common to all, as to type: physicochemical
Series [1] can be described thus: Solid-state stability under accelerated storage, purity via HPLC. Conditions: for stability with respect to change in TAK-924 chemical purity (% Area) and physical form / overall chemical and physical stability: accelerated storage; for stability with respect to change in TAK-924 chemical purity (% Area) and physical form: compared to Form 1; for overall chemical and physical stability: overall stability data. The procedure: (§1) Solid-state stability studies of Forms 1, 9, and 12 were performed to assess the relative stability of new anhydrous Forms 9 and 12. Solid samples of each pattern were stored in open and closed glass vials at accelerated conditions (40° C./75% RH open and closed, and 60° C. closed). […]

A short description of a further series: Solubility of solid form. Conditions: pH 2.33; pH of 2.33.
A short description of series [2]: Solid-state stability under accelerated storage, polymorphic form via XRPD. Conditions: T-6 Days, hydrochloride. How it is done:
as §1

The mark [3] stands for this setting: 40° C./75% RH Closed, T-3.5 Weeks, hydrochloride.
The mark [4] stands for this setting: 40° C./75% RH Closed, T-6 Days, hydrochloride.
Where [5] appears, read: 40° C./75% RH Open, T-3.5 Weeks, hydrochloride.
Where [6] appears, read: 40° C./75% RH Open, T-6 Days, hydrochloride.
[7] abbreviates: 60° C. (closed), T-3.5 Weeks, hydrochloride.
Setting [8] is: 60° C. (closed), T-6 Days, hydrochloride.

As to `Cl.NS(=O)(=O)OC[C@@H]1C[C@@H](n2ccc3c(N[C@H]4CCc5ccccc54)ncnc32)C[C@@H]1O` [Compound Form 12, ((1S,2S,4R)-4-{4-[(1S)-2,3-dihydro-1H-inden-1-ylamino]-7H-pyrrolo[2,3-d]pyrimidin-7-yl}-2-hydroxycyclopentyl)methyl sulfamate hydrochloride], in series [1], the “stability with respect to change in TAK-924 chemical purity (% Area) and physical form” value is “stable when compared to Form 1”; the “overall chemical and physical stability” value is “chemically and physically stable”.

`Cl.NS(=O)(=O)OC[C@@H]1C[C@@H](n2ccc3c(N[C@H]4CCc5ccccc54)ncnc32)C[C@@H]1O` [Compound Form 9, ((1S,2S,4R)-4-{4-[(1S)-2,3-dihydro-1H-inden-1-ylamino]-7H-pyrrolo[2,3-d]pyrimidin-7-yl}-2-hydroxycyclopentyl)methyl sulfamate hydrochloride]: in series [1], the “stability with respect to change in TAK-924 chemical purity (% Area) and physical form” value is “stable when compared to Form 1”; the “overall chemical and physical stability” value was “chemically and physically stable”. Also, the solubility in “Solubility of solid form” is approximately 7800 µg/mL.

For the molecule `Cl.NS(=O)(=O)OC[C@@H]1C[C@@H](n2ccc3c(N[C@H]4CCc5ccccc54)ncnc32)C[C@@H]1O` [Compound Form 1, ((1S,2S,4R)-4-{4-[(1S)-2,3-dihydro-1H-inden-1-ylamino]-7H-pyrrolo[2,3-d]pyrimidin-7-yl}-2-hydroxycyclopentyl)methyl sulfamate hydrochloride], the “HPLC Purity (% Area TAK-924)” value was determined as 98.1 % Area in series [1] (setting [3]); 98.6 % Area in series [1] (setting [4]); 98.8 % Area in series [1] (setting [5]); 98.9 % Area in series [1] (setting [6]); 86.6 % Area in series [1] (setting [7]); 94.4 % Area in series [1] (setting [8]). The “HPLC Purity change from T-0” value was “(−0.9%)” in series [1] (setting [3]); “(−0.4%)” in series [1] (setting [4]); “(−0.2%)” in series [1] (setting [5]); “(−0.1%)” in series [1] (setting [6]); “(−13.4%)” in series [1] (setting [7]); “(−5.6%)” in series [1] (setting [8]). Also, the “HPLC Purity (% Area TAK-924), Initial (T-0)” value in series [1] (Initial (T-0), before accelerated storage, hydrochloride) worked out at 99.0 % Area. For the same molecule, the “XRPD Results (polymorphic form after accelerated storage)” value in series [2] (40° C./75% RH Closed) and in series [2] (60° C. (closed)) was “Form 1” each time.
